Test results: US8163939B2, “Ascorbic acid derivative or salt thereof, production method thereof, and cosmetic” (Seikwa Kasei Company, Limited, priority 2007, dated 2012)

Columns and labels:
B16 melanoma 4A5 cell = assay: Whitening test: theophylline-induced melanine production in B16 melanoma 4A5 cells; assay type: cell-based, mouse; conditions: sample at a concentration of 100 μM or less; theophylline-induced melanine production; 3 days culture; N=4;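 also: grades: ± under 20% + 20-40% ++ 40-70% +++ 70-100% suppression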
Description: As a test for a whitening effect, evaluation of the action of B16 melanoma 4A5 cell on theophylline-induced melanine production was carried out on an ascorbic acid derivative of the present invention, according to the following procedure. The same evaluation was carried out also on ascorbic acid, known compounds: ascorbic acid salts, and ascorbic acid derivatives, as comparison. The results are shown in Tables 38 to 40. • (1) B16 mouse melanoma 4A5 strain was sowed onto a 48-well plate at a cell density of 2.0×10^4 cells/well. • (2) Culturing was performed for 24 hours with Dulbecco's Modified Eagle's medium (manufactured by SIGMA. Hereinafter, abbreviated as D-MEM) containing 10% fetal bovine serum (manufactured by Roshe Diagnostics). Then, it was changed to 0.2 mM theophylline and a 10% fetal bovine serum-containing D-MEM which contains a sample of given concentration. • (3) After culturing for 3 days in the co-existence of a sample, the medium was removed using an aspirator. Then, after distilled water was added, cells were broken by an ultrasonic wave. • (4) Thereafter, the amount of protein was determined using BCA protein assay kit (manufactured by PIERCE), and the produced amount of melanine was measured by an alkali solubilizing method. To the cell-destructed solution was added sodium hydroxide so as to give a final concentration of 2N and the mixture was dissolved by heating (60° C., 15 minutes), then, the absorbance at 450 nm was measured using a micro plate reader. The melanine amount was calculated from a calibration curve made using synthetic melanine (SIGMA) as a standard. The melanine amount per unit protein was calculated by dividing the melanine amount by the protein amount. • (5) The melanine production suppressing rate was calculated according to the following formula. Melanine production suppressing rate (%)=[1−(A−B)/(C−B)]×100 [wherein, A represents the melanine amount per unit protein (g/g) in adding a sample, B represents the melanine amount per unit protein (g/g) in the normal group, and C represents the melanine amount per unit protein (g/g) in the control group.]
In the following Tables, the melanine production suppressing rate in measuring a sample at a concentration of 100 μM or less is expressed as described below. The measurement was carried out at N=4.

[1] = test system: Normal human dermal fibroblasts; assay: Collagen production of human fibroblast (Sircol collagen assay, 100 μM, 48 hours); assay type: cell-based; conditions: cultured 48 hours; for Collagen production promoting effect (collagen production amount, % of control group): N=4; for activity at 100 µM: Homo sapiens, Fibroblast, N=4, read-out: Collagen production promoting effect (collagen production amount, % of control group)
Description: (§1) Normal human dermal fibroblasts were regulated with a 10% (v/v) fetal bovine serum (manufactured by Roshe Diagnostics)-containing D-MEM so as to give a cell density of 2.5×10^4 cells/well, then, pre-incubation for 24 hours was performed on a 96-well plate. After the medium was removed, a sample regulated with a 5% (v/v) fetal bovine serum-containing D-MEM to a concentration of 100 μM was added to each well, then, cultured for 48 hours under 37° C. and 5% CO2. After completion of culturing, the amount of free collagen was measured using Sircol collagen assay kit (manufactured by Biocolor). The measurement was carried out at N=4.
The collagen production amount in measuring a sample at a concentration of 100 μM was compared with the control group, and the results thereof (% value when the control group is 100%) are shown in Tables 44 and 45 based on the following standard.

[2] = test system: Normal human dermal fibroblasts; assay: Collagen production of human fibroblast 2 (100 μM or 500 μM; 2, 4 and 7 days); assay type: cell-based; conditions: for Collagen production amount in comparison with the control group (% value when the control group is 100%): 100 μM or 500 μM (not stated which), average ± standard error, N=4
Description: as §1
Free collagen was measured under the same conditions as in Test Example 5 excepting that the concentration of each sample was 100 μM or 500 μM and culturing was carried out for 2 days, 4 days and 7 days. The measurement was carried out at N=4, and the average and standard error, in four test examples, of values of the collagen production amount in comparison with the control group (% value when the control group is 100%) are shown in Tables 46 and 47.

[3] = Stability Test 1: 2% aqueous solution, pH7, room temperature, 4 weeks (residual rate, odor, coloration); assay type: physicochemical
Description: (§2) Aqueous solutions (2%) of various test samples were adjusted to pH7 with a dilute sodium hydroxide aqueous solution, and charged into 50 mL screw tubes, and the tubes were sealed and stored at room temperature for 4 weeks. Thereafter, HPLC measurement were performed (using liquid chromatography manufactured by Tosoh Corp.) and the residual rate was obtained based on the peak area. The residual rate, odor(odor change) and degree of coloration were evaluated based on the following methods and standards, and the results are shown in Table 41.
◯: 80% or more and less than 90%
Δ: 60% or more and less than 80%
X: 20% or more and less than 60%
It was evaluated according to the following criterion by 10 panelists.
Based on the evaluation results, classification was conducted as shown below.
◯: total point of 10 panelists is 25 or more
Δ: total point of 10 panelists is 16 to 24
X: total point of 10 panelists is 15 or less
3: almost no change as compared with that immediately after preparation
2: coloration is observed as compared with that immediately after preparation
1: intense coloration is observed as compared with that immediately after preparation

[4] = Stability Test 2: 2% aqueous solution, pH7, 50° C., 4 weeks (residual rate, odor, coloration); assay type: physicochemical
Description: as §2
The same test as in Test Example 2 was carried out excepting that the sample was stored at 50° C. for 4 weeks instead of storing at room temperature for 4 weeks.

[5] = Table 47, culturing period 2 days
[6] = Table 47, culturing period 4 days
[7] = Table 47, culturing period 7 days
[8] = storage period 2 weeks, 10 panelists
[9] = storage period 4 weeks, 10 panelists
[10] = Table 46, culturing period 2 days
[11] = Table 46, culturing period 4 days
[12] = Table 46, culturing period 7 days

CCCCCCCCC(O)COC1=C(O)C(=O)O[C@@H]1[C@@H](O)CO (stereo partly drawn) [Example 46]
Whitening effect (melanine production suppressing rate) (B16 melanoma 4A5 cell): ++ (40 to 70%:++) | Collagen production promoting effect (collagen production amount, % of control group) [1]: + (100 to 200%:+) | Collagen production amount in comparison with the control group (% value when the control group is 100%) [2, 5]: 152 ± 6% | Collagen production amount in comparison with the control group (% value when the control group is 100%) [2, 6]: 123 ± 11% | Collagen production amount in comparison with the control group (% value when the control group is 100%) [2, 7]: 254 ± 10%

CCCCCCCCOC1=C(OCC(O)CO)[C@@H]([C@@H](O)CO)OC1=O (stereo partly drawn) [Example 14, 3-O-glyceryl-2-O-octyl ascorbic acid]
Whitening effect (melanine production suppressing rate) (B16 melanoma 4A5 cell): +++ (70 to 100%:+++) | activity at 100 µM [1]: 100 to 200% | Collagen production amount in comparison with the control group (% value when the control group is 100%) [2, 5]: 132 ± 22% | Collagen production amount in comparison with the control group (% value when the control group is 100%) [2, 6]: 144 ± 9% | Collagen production amount in comparison with the control group (% value when the control group is 100%) [2, 7]: 238 ± 17% | Residual rate ([3]; storage period 0): ⊚ (⊚: 90% or more) | Coloration ([3]; storage period 0, 10 panelists): ◯ (◯: total point of 10 panelists is 25 or more) | Odor ([3]; storage period 0, 10 panelists): ◯ (◯: total point of 10 panelists is 25 or more) | Residual rate ([3]; storage period 2 weeks): ⊚ (⊚: 90% or more) | Coloration [3, 8]: ◯ (◯: total point of 10 panelists is 25 or more) | Odor [3, 8]: ◯ (◯: total point of 10 panelists is 25 or more) | Residual rate ([3]; storage period 4 weeks): ⊚ (⊚: 90% or more) | Coloration [3, 9]: ◯ (◯: total point of 10 panelists is 25 or more) | Odor [3, 9]: ◯ (◯: total point of 10 panelists is 25 or more) | Residual rate ([4]; storage period 0): ⊚ (⊚: 90% or more) | Coloration ([4]; storage period 0, 10 panelists): ◯ (◯: total point of 10 panelists is 25 or more) | Odor ([4]; storage period 0, 10 panelists): ◯ (◯: total point of 10 panelists is 25 or more) | Residual rate ([4]; storage period 2 weeks): ⊚ (⊚: 90% or more) | Coloration [4, 8]: ◯ (◯: total point of 10 panelists is 25 or more) | Odor [4, 8]: ◯ (◯: total point of 10 panelists is 25 or more) | Residual rate ([4]; storage period 4 weeks): ⊚ (⊚: 90% or more) | Coloration [4, 9]: ◯ (◯: total point of 10 panelists is 25 or more) | Odor [4, 9]: ◯ (◯: total point of 10 panelists is 25 or more)

CCCCCCCCOCC(O)COC1=C(OCC(O)CO)C(C(O)CO)OC1=O (stereo not drawn) [Example 84]
Whitening effect (melanine production suppressing rate) (B16 melanoma 4A5 cell): + (20 to 40%:+) | Collagen production promoting effect (collagen production amount, % of control group) [1]: + (100 to 200%:+) | Collagen production amount in comparison with the control group (% value when the control group is 100%) [2, 5]: 135 ± 11% | Collagen production amount in comparison with the control group (% value when the control group is 100%) [2, 6]: 154 ± 8% | Collagen production amount in comparison with the control group (% value when the control group is 100%) [2, 7]: 201 ± 16%

O=C1OC(C(O)CO)C(OCC(O)CO)=C1O (stereo not drawn) [Example 1, 3-O-glyceryl ascorbic acid]
Whitening effect (melanine production suppressing rate) (B16 melanoma 4A5 cell): + (20 to 40%:+) | activity at 100 µM [1]: 100 to 200% | Collagen production amount in comparison with the control group (% value when the control group is 100%) [2, 10]: 182 ± 7% | Collagen production amount in comparison with the control group (% value when the control group is 100%) [2, 11]: 209 ± 8% | Collagen production amount in comparison with the control group (% value when the control group is 100%) [2, 12]: 219 ± 29% | Residual rate ([3]; storage period 0): ⊚ (⊚: 90% or more) | Coloration ([3]; storage period 0, 10 panelists): ◯ (◯: total point of 10 panelists is 25 or more) | Odor ([3]; storage period 0, 10 panelists): ◯ (◯: total point of 10 panelists is 25 or more) | Residual rate ([3]; storage period 2 weeks): ◯ (◯: 80% or more and less than 90%) | Coloration [3, 8]: ◯ (◯: total point of 10 panelists is 25 or more) | Odor [3, 8]: ◯ (◯: total point of 10 panelists is 25 or more) | Residual rate ([3]; storage period 4 weeks): ◯ (◯: 80% or more and less than 90%) | Coloration [3, 9]: ◯ (◯: total point of 10 panelists is 25 or more) | Odor [3, 9]: ◯ (◯: total point of 10 panelists is 25 or more)

O=C1O[C@H]([C@@H](O)CO)C([O-])=C1OP(=O)([O-])[O-].O=C1O[C@H]([C@@H](O)CO)C([O-])=C1OP(=O)([O-])[O-].[Mg+2].[Mg+2].[Mg+2] [magnesium ascorbyl phosphate, reference compound]
Whitening effect (melanine production suppressing rate) (B16 melanoma 4A5 cell): ± (<20%:±) | Collagen production promoting effect (collagen production amount, % of control group) [1]: + (100 to 200%:+) | collagen production promoting effect over time (in words) ([2]; 100 μM or 500 μM, culturing 2, 4 and 7 days): lowers over time | Collagen production amount in comparison with the control group (% value when the control group is 100%) [2, 10]: 276 ± 9% | Collagen production amount in comparison with the control group (% value when the control group is 100%) [2, 11]: 207 ± 24% | Collagen production amount in comparison with the control group (% value when the control group is 100%) [2, 12]: 191 ± 2%

CCCCOCC(O)COC1=C(OCC)C(C(O)CO)OC1=O (stereo not drawn) [Example 97]
Whitening effect (melanine production suppressing rate) (B16 melanoma 4A5 cell): + (20 to 40%:+) | Collagen production promoting effect (collagen production amount, % of control group) [1]: + (100 to 200%:+) | Collagen production amount in comparison with the control group (% value when the control group is 100%) [2, 5]: 93 ± 4% | Collagen production amount in comparison with the control group (% value when the control group is 100%) [2, 6]: 111 ± 4% | Collagen production amount in comparison with the control group (% value when the control group is 100%) [2, 7]: 139 ± 15%

CCCCCCCCC(O)COC1=C(OCC(O)CO)[C@@H]([C@@H](O)CO)OC1=O (stereo partly drawn) [Example 29, 3-O-glyceryl-2-O-(2-hydroxydecyl) ascorbic acid]
Whitening effect (melanine production suppressing rate) (B16 melanoma 4A5 cell): + (20 to 40%:+) | activity at 100 µM [1]: 100 to 200% | Collagen production amount in comparison with the control group (% value when the control group is 100%) [2, 5]: 97 ± 19% | Collagen production amount in comparison with the control group (% value when the control group is 100%) [2, 6]: 116 ± 7% | Collagen production amount in comparison with the control group (% value when the control group is 100%) [2, 7]: 138 ± 3%
